The values that follow come from patent publication US20160201132A1, “GENE EXPRESSION BIOMARKERS OF LAQUINIMOD RESPONSIVENESS” (Teva Pharmaceutical Industries Ltd., priority 2013, published 2016).

SMILES strings stand for the structures.

The experiment has as its system TGFB1. In words: Western blot verification of TGFB1 (TGFb) protein in PBMC of LAQ-treated RRMS patients. Format: in vivo, human. On the procedure:
FIG. 5: Expression of TGFB1 in PBMCs of RRMS patients following treatment with LAQ. Protein samples ([…]) were prepared from phenol/ethanol fractions of PBMCs derived from patients after 6 month of LAQ treatment (+) and compared to PBMCs samples of the same patients before treatment (−) (FIGS. 5A and 5C). From each sample 30 ug was separated on 10% SDS-PAGE. Blots were incubated with Rabbit a-TGFb1 (1:250) and mouse Tubulin (1:500). The signal intensities of a protein band and its surrounding background were scanned for each protein and quantified by using Quantity One 4.6.9 software (Bio-Rad Laboratories, Hercules, Calif.). […] The signal intensity of a protein bands were quantified by Quantity One 4.6.9 software. The resultant background-subtracted values of protein expression were normalized to those of Tubulin and then calculated as the relative protein levels for each patient before or after LAQ treatment. The blot images in A, B and C are representative of two out of five analyzed patients showing down regulation of TGFb, ITGB1 and CXCR1, respectively as also quantified by densitometry of bands analyzed from five patients. […] Supernatant was collected and protein concentration was determined using a Bradford assay (Pierce, Rockford, Ill., USA) according the manufacturer's guidelines. […]

`CCN(C(=O)c1c(O)c2c(Cl)cccc2n(C)c1=O)c1ccccc1` [LAQ, 5-chloro-N-ethyl-4-hydroxy-1-methyl-2-oxo-N-phenyl-1,2-dihydroquinoline-3-carboxamide]: the “down-regulation of TGFB1 protein level (band intensities normalized against Tubulin)” value (four out of five patients, 6 months of LAQ treatment vs before treatment) is reported as 20-50%. Besides, the “TGFb protein suppressed by (quantification of bands intensities)” value (six months of LAQ treatment vs baseline, n=5) is listed as 69.0%.
